Key:
Type in all cases: cell-based, HIV-1
[1] = test system: BC05 pseudovirus (CRF07_BC); conditions: R5, TZM-bl, 48 h, triplicate, mean ± SD of at least three independent experiments
Excerpt: (§1) A panel of plasmids encoding HIV-1 Envs were obtained through the AIDS Research and Reference Reagent Program (ARRRP), Division of AIDS, NIAID, NIH, including subtype A Env clones pSVIII-92RW020.5 and 92UG037.8 from Dr. B.H. Hahn; subtype B Env clones SC422661.8, TRO.11 and AC10.0.29 from Drs. D. Montefiori, F. Gao and M. Li, pRHPA4259.7 and pREJO4541.67 from Drs. B.H. Hahn and J.F. Salazar-Gonzalez, and pCAAN5342.A2 from Drs. B.H. Hahn and D.L. Kothe; subtype C Env clones Du172.17 and Du422.1 from Drs. D. Montefiori, F. Gao, S. Abdool Karim and G. Ramjee, CAP45.2.00.G3 from Drs. L. Morris, K. Mlisana and D. Montefiori, ZM197M.PB7 from Drs. B.H. Hahn, Y. Li and J.F. Salazar-Gonzalez, ZM109F.PB4 from Drs. E. Hunter and C. Derdeyn. Six CRF07_BC Env clones (CH064.20, CH070.1, CH091.9, CH110.2, CH119.10 and CH120.6) were generous gifts by Dr. Y. Shao in the Chinese Center for Disease Control and Prevention, Beijing, China. A panel of Env clones derived from subtype B′ (B01, B02, B04, and 43-22), CRF01_AE (SHX335.24, YN192.31, AE01, AE03, GX2010.36, GX11.13, GX2010.36H, BJ5.11), and CRF07_BC (BC02, BC03, BC05, BC07, BC14, SC19-15, BJ22-5, YN148R-9, XJ50-6, HB5-3) were kindly provided by Dr. Y. Wang from the National Institute for the Control of Pharmaceutical and Biological Products, Beijing, China.

[2] = test system: TRO.11 pseudovirus (subtype B); conditions: TRO.11, subtype B, R5; TZM-bl, 48 h; triplicate, mean ± SD of three independent experiments
Excerpt: as §1

[3] = test system: GX11.13 pseudovirus (CRF01_AE); conditions: GX11.13, CRF01_AE, R5; TZM-bl, 48 h; triplicate, mean ± SD of at least three independent experiments
Excerpt: as §1

[4] = test system: 43-22 pseudovirus (subtype B′); conditions: 43-22, B′, R5; TZM-bl, 48 h; triplicate, mean ± SD of at least three independent experiments
Excerpt: as §1

[5] = test system: CH091 pseudovirus (CRF07_BC); conditions: R5, TZM-bl, 48 h, triplicate, mean ± SD of at least three independent experiments
Excerpt: as §1

[6] = test system: ZM109F.PB4 pseudovirus (subtype C); conditions: R5, TZM-bl, 48 h, triplicate, mean ± SD of three independent experiments
Excerpt: as §1

[7] = test system: YN148r-9 pseudovirus (CRF07_BC); conditions: YN148r-9, CRF07_BC, R5; TZM-bl, 48 h; triplicate, mean ± SD of at least three independent experiments
Excerpt: as §1

[8] = test system: YN192.31 pseudovirus (CRF01_AE); conditions: YN192.31, CRF01_AE, R5; TZM-bl, 48 h; triplicate, mean ± SD of at least three independent experiments
Excerpt: as §1

[9] = test system: Du422.1 pseudovirus (subtype C); conditions: Du422.1, subtype C, R5; TZM-bl, 48 h; triplicate, mean ± SD of three independent experiments
Excerpt: as §1

[10] = test system: 92RW020 pseudovirus (subtype A); conditions: 92RW020, subtype A, R5; TZM-bl, 48 h; triplicate, mean ± SD of three independent experiments
Excerpt: as §1

[11] = test system: AE03 pseudovirus (CRF01_AE); conditions: R5, TZM-bl, 48 h, triplicate, mean ± SD of at least three independent experiments
Excerpt: as §1

[12] = test system: CH110 pseudovirus (CRF07_BC); conditions: R5, TZM-bl, 48 h, triplicate, mean ± SD of at least three independent experiments
Excerpt: as §1

[13] = test system: AE01 pseudovirus (CRF01_AE); conditions: R5, TZM-bl, 48 h, triplicate, mean ± SD of at least three independent experiments
Excerpt: as §1

[14] = test system: BJ5.11 pseudovirus (CRF01_AE); conditions: BJ5.11, CRF01_AE, R5; TZM-bl, 48 h; triplicate, mean ± SD of at least three independent experiments
Excerpt: as §1

[15] = test system: RHPA4259 pseudovirus (subtype B); conditions: R5, TZM-bl, 48 h, triplicate, mean ± SD of three independent experiments
Excerpt: as §1

[16] = test system: CH120 pseudovirus (CRF07_BC); conditions: R5, TZM-bl, 48 h, triplicate, mean ± SD of at least three independent experiments
Excerpt: as §1

[17] = test system: SC19-15 pseudovirus (CRF07_BC); conditions: SC19-15, CRF07_BC, R5; TZM-bl, 48 h; triplicate, mean ± SD of at least three independent experiments
Excerpt: as §1

[18] = test system: GX2010.36H pseudovirus (CRF01_AE); conditions: R5, TZM-bl, 48 h, triplicate, mean ± SD of at least three independent experiments
Excerpt: as §1

[19] = test system: BC03 pseudovirus (CRF07_BC); conditions: R5, TZM-bl, 48 h, triplicate, mean ± SD of at least three independent experiments
Excerpt: as §1

[20] = test system: SF162.LS pseudovirus (subtype B); conditions: R5, TZM-bl, 48 h, triplicate, mean ± SD of three independent experiments
Excerpt: as §1

[21] = test system: ZM197M.PB7 pseudovirus (subtype C); conditions: R5, TZM-bl, 48 h, triplicate, mean ± SD of three independent experiments
Excerpt: as §1

[22] = test system: B02 pseudovirus (subtype B′); conditions: R5, TZM-bl, 48 h, triplicate, mean ± SD of at least three independent experiments
Excerpt: as §1

[23] = test system: Du172.17 pseudovirus (subtype C); conditions: Du172.17, subtype C, R5; TZM-bl, 48 h; triplicate, mean ± SD of three independent experiments
Excerpt: as §1

Substance: enfuvirtide
- IC50 [1]: 0.00439 ± 0.00025 µM
- IC50 [2]: 0.334 ± 0.0489 µM
- IC50 [3]: 0.0066 ± 0.00032 µM
- IC50 [4]: 0.0121 ± 0.00324 µM
- IC50 [5]: 0.0659 ± 0.0143 µM
- IC50 [6]: 0.0764 ± 0.00269 µM
- IC50 [7]: 0.131 ± 0.0147 µM
- IC50 [8]: 0.0685 ± 0.00325 µM
- IC50 [9]: 0.0284 ± 0.00514 µM
- IC50 [10]: 0.0254 ± 0.00981 µM
- IC50 [11]: 0.0078 ± 0.00166 µM
- IC50 [12]: 0.0186 ± 0.00315 µM
- IC50 [13]: 0.0248 ± 0.00225 µM
- IC50 [14]: 0.342 ± 0.132 µM
- IC50 [15]: 0.2819 ± 0.00057 µM
- IC50 [16]: 0.0504 ± 0.00422 µM
- IC50 [17]: 0.00761 ± 0.00097 µM
- IC50 [18]: 0.0259 ± 0.00028 µM
- IC50 [19]: 0.00346 ± 0.00041 µM
- IC50 [20]: 0.0435 ± 0.00916 µM
- IC50 [21]: 0.0633 ± 0.017 µM
- IC50 [22]: 0.00859 ± 0.0008 µM
- IC50 [23]: 0.0116 ± 0.00529 µM
